Test results: US4383113A, “Agricultural sulfonamides” (E. I. Du Pont de Nemours and Company, priority 1981, dated 1983)

Columns and labels:
morningglory [1] = assay: Test A pre-emergence; assay type: in vivo, Ipomoea spp.; design: key: 0 = no effect, 10 = maximum effect; letter = response symbol; conditions: 0.4 kg/ha
Text: (§1) The activity of these compounds was discovered in a number of greenhouse and field tests. The ratings are based on a numerical scale extending from 0=no effect, to 10=maximum effect. The accompanying descriptive symbols have the following meanings:
(§2) Seeds of crabgrass (Digitaria spp.), barnyardgrass (Echinochloa crusgalli), wild oats (Avena fatua), cassia (Cassia tora), morningglory (Ipomoea spp.), cocklebur (Xanthium spp.), sorghum, corn, soybean, rice, wheat and nutsedge tubers (Cyperus rotundus) were planted in a growth medium and treated preemergence with a nonphytotoxic solvent solution of the compounds of Table XII. Other batches of seeds and tubers for all of the foregoing weed and crop plants were planted at the same time as controls. The control plantings were untreated; i.e., neither any compound nor any solvent was applied. At the same time, cotton having five leaves (including cotyledonary ones), bush beans with the third trifoliate leaf expanding, crabgrass with two leaves, barnyardgrass with two leaves, wild oats with two leaves, cassia with three leaves (including cotyledonary ones), morningglory with four leaves (including the cotyledonary ones), cocklebur with four leaves (including the cotyledonary ones), sorghum with four leaves, corn with four leaves, soybean with two cotyledonary leaves, rice with three leaves, wheat with one leaf, and nutsedge with three-five leaves were sprayed with a nonphytotoxic solvent solution of the compounds of Table XII. Other groups of all the same weed and crop plants were sprayed with the same nonphytotoxic solvent so as to provide control plants. Preemergence and postemergence treated plants and controls were maintained in a greenhouse for sixteen days, then all treated plants were compared with their respective controls and rated visually for response to treatment.

cocklebur = assay: Test A pre-emergence; assay type: in vivo, Xanthium spp.; design: key: 0 = no effect, 10 = maximum effect; letter = response symbol; conditions: 0.4 kg/ha
Text: as §1, §2

cassia = assay: Test A pre-emergence; assay type: in vivo, Cassia tora; design: key: 0 = no effect, 10 = maximum effect; letter = response symbol; conditions: 0.4 kg/ha
Text: as §1, §2

barnyardgrass [2] = assay: Test A pre-emergence; assay type: in vivo, Echinochloa crusgalli; design: key: 0 = no effect, 10 = maximum effect; letter = response symbol; conditions: 0.4 kg/ha
Text: as §1, §2

soybean = assay: Test A pre-emergence; assay type: in vivo; design: key: 0 = no effect, 10 = maximum effect; letter = response symbol; conditions: 0.4 kg/ha
Text: as §1, §2

wheat [3] = assay: Test A pre-emergence; assay type: in vivo; design: key: 0 = no effect, 10 = maximum effect; letter = response symbol; conditions: 0.4 kg/ha
Text: as §1, §2

purple nutsedge = assay: Test F post-emergence; assay type: in vivo, Cyperus rotundus
Text: Purple nutsedge tubers (Cyperus rotundus) were planted about 2 cm deep in Fallsington silt loam contained in plastic pots 10 cm in diameter. Five tubers were put in each pot. Compounds of this invention were sprayed dissolved in a non-phytotoxic solvent at a volume rate of 560 l/ha. in four different methods of treatment, i.e., soil surface spray, tuber/soil spray, soil incorporated and post-emergence. For the soil surface spray, the compounds were sprayed on the firmed soil surface immediately after planting. For the tuber/soil spray, the compounds were sprayed on the exposed tubers and subtending soil before the untreated covering soil was added. Soil incorporation treatments were mixed in the covering soil. Post-emergence treatments were sprayed on the nutsedge foliage and surrounding soil surface after the nutsedge had emerged and had reached the height of about 12 cm.
Immediately after spraying the surface spray, tuber/soil spray and soil incorporated treatments were misted with about 0.3 cm of water over a 90 minute period and then placed in the greenhouse. Post-emergence treatments were placed directly into the greenhouse and watered carefully so that treatments would not be washed from the foliage.

sorghum = assay: Test A pre-emergence; assay type: in vivo; design: key: 0 = no effect, 10 = maximum effect; letter = response symbol; conditions: 0.4 kg/ha
Text: as §1, §2

barnyardgrass [4] = assay: Test A post-emergence; assay type: in vivo, Echinochloa crusgalli; design: key: 0 = no effect, 10 = maximum effect; letter = response symbol; conditions: 2 kg/ha
Text: as §1, §2

wild oats = assay: Test A post-emergence; assay type: in vivo, Avena fatua; design: key: 0 = no effect, 10 = maximum effect; letter = response symbol
Text: as §1, §2

wheat [5] = assay: Test A post-emergence; assay type: in vivo; design: key: 0 = no effect, 10 = maximum effect; letter = response symbol
Text: as §1, §2

morningglory [6] = assay: Test A post-emergence; assay type: in vivo, Ipomoea spp.; design: key: 0 = no effect, 10 = maximum effect; letter = response symbol; conditions: 0.4 kg/ha
Text: as §1, §2

nutsedge = assay: Test A post-emergence; assay type: in vivo, Cyperus rotundus; design: key: 0 = no effect, 10 = maximum effect; letter = response symbol; conditions: 0.4 kg/ha
Text: as §1, §2

With `COc1cc(C)nc(NC(=O)NS(=O)(=O)c2ccccc2C(=O)OCCOCCOCCCl)n1` [drawing 515] the response rating (morningglory [1]) was 9G, the response rating (cocklebur) was 9G and the response rating (cassia) was 9C. The response rating (barnyardgrass [2]) was 9H and the response rating (soybean) was 9H.
For `CNC(=O)c1ccccc1S(=O)(=O)NC(=O)Nc1nc(C)cc(OC)n1` [drawing 533], the response rating (cocklebur) was 9G, the response rating (cassia) was 9G and the response rating (soybean) was 9H. The response rating (wheat [3]) was 9H.
In the case of `COC(=O)c1ccccc1S(=O)(=O)NC(=O)Nc1nc(C)cc(C)n1` [drawing 591], the “response rating after 4 weeks” value (purple nutsedge; .008 kg/ha) is reported as 9C, the “response rating after 4 weeks” value (purple nutsedge; .016 kg/ha) is reported as 9C and the “response rating after 4 weeks” value (purple nutsedge; .032 kg/ha) is reported as 10C. For the same molecule, the “response rating after 4 weeks” value (purple nutsedge; .064 kg/ha) was 10C.
With `COc1cc(C)nc(NC(=O)NS(=O)(=O)c2ccccc2C(=O)OC(C)C)n1` [drawing 601] the “response rating after 4 weeks” value (purple nutsedge; .008 kg/ha) was 10C, the “response rating after 4 weeks” value (purple nutsedge; .032 kg/ha) was 10C and the “response rating after 4 weeks” value (purple nutsedge; .125 kg/ha) was 10C. For the same molecule, the “response rating after 4 weeks” value (purple nutsedge; .25 kg/ha) was 10C.
In the case of `COC(=O)c1ccccc1S(=O)(=O)NC(=O)Nc1nc(C)cc(OC)n1` [drawing 592], the “response rating after 4 weeks” value (purple nutsedge; .008 kg/ha) is reported as 9C, the “response rating after 4 weeks” value (purple nutsedge; .016 kg/ha) is reported as 9C and the “response rating after 4 weeks” value (purple nutsedge; .032 kg/ha) is reported as 10C. The “response rating after 4 weeks” value (purple nutsedge; .064 kg/ha) was 10C.
In the case of `COC(=O)c1ccccc1S(=O)(=O)NC(=O)Nc1nc(OC)cc(OC)n1` [drawing 593], the “response rating after 4 weeks” value (purple nutsedge; .004 kg/ha) is reported as 8C, the “response rating after 4 weeks” value (purple nutsedge; .008 kg/ha) is reported as 10C and the “response rating after 4 weeks” value (purple nutsedge; .016 kg/ha) is reported as 10C. The “response rating after 4 weeks” value (purple nutsedge; .032 kg/ha) was 9C and the “response rating after 4 weeks” value (purple nutsedge; .064 kg/ha) was 10C.
In the case of `CCOC(=O)c1ccccc1S(=O)(=O)NC(=O)Nc1nc(OC)cc(OC)n1` [drawing 598], the “response rating after 4 weeks” value (purple nutsedge; .008 kg/ha) is reported as 10C, the “response rating after 4 weeks” value (purple nutsedge; .032 kg/ha) is reported as 10C and the “response rating after 4 weeks” value (purple nutsedge; .125 kg/ha) is reported as 10C. The “response rating after 4 weeks” value (purple nutsedge; .25 kg/ha) was 10C.
Work on `COc1cc(C)nc(NC(=O)NS(=O)(=O)c2ccccc2C(=O)OC2CCOC2)n1` (centres unmarked) [drawing 513] yielded a response rating (morningglory [1]) of 9G, a response rating (cocklebur) of 9G and a response rating (cassia) of 9G. It also gave a response rating (barnyardgrass [2]) of 9H, a response rating (soybean) of 9H and a response rating (wheat [3]) of 9H.
`COc1cc(C)nc(NC(=O)NS(=O)(=O)c2ccccc2C(=O)SC)n1` [drawing 544] was tested, and the response rating (morningglory [1]) was 9G, the response rating (cocklebur) was 9G and the response rating (cassia) was 9G. For the same molecule, the response rating (sorghum) was 9H and the response rating (soybean) was 9H.
With `COc1cc(OC)nc(NC(=O)NS(=O)(=O)c2ccccc2C(=O)OC(C)C)n1` [drawing 602] the “response rating after 4 weeks” value (purple nutsedge; .008 kg/ha) was 10C, the “response rating after 4 weeks” value (purple nutsedge; .032 kg/ha) was 10C and the “response rating after 4 weeks” value (purple nutsedge; .125 kg/ha) was 10C. For the same molecule, the “response rating after 4 weeks” value (purple nutsedge; .25 kg/ha) was 10C.
`CCCCOC(=O)c1ccccc1S(=O)(=O)NC(=O)Nc1nc(C)cc(OC)n1` [drawing 599] was tested, and the “response rating after 4 weeks” value (purple nutsedge; .125 kg/ha) was 8C.
`COC(=O)c1cc(Cl)ccc1S(=O)(=O)NC(=O)Nc1nc(OC)cc(OC)n1` [drawing 605] was tested, and the “response rating after 4 weeks” value (purple nutsedge; .008 kg/ha) was 10C, the “response rating after 4 weeks” value (purple nutsedge; .032 kg/ha) was 10C and the “response rating after 4 weeks” value (purple nutsedge; .125 kg/ha) was 10C.
`COC(=O)c1ccccc1S(=O)(=O)NC(=O)Nc1ncccn1` [drawing 418] gave a response rating (barnyardgrass [4]) of 9C, a response rating (wild oats; 2 kg/ha) of 2G and a response rating (wheat [5]; 2 kg/ha) of 5G.
`COC(=O)c1ccccc1S(=O)(=O)NC(=O)Nc1nc(OC)nc(OC)n1` [drawing 595] was tested, and the “response rating after 4 weeks” value (purple nutsedge; .004 kg/ha) was 0, the “response rating after 4 weeks” value (purple nutsedge; .008 kg/ha) was 0 and the “response rating after 4 weeks” value (purple nutsedge; .032 kg/ha) was 3G.
With `COc1nc(C)nc(NC(=O)NS(=O)(=O)c2ccccc2C(=O)OCc2ccc(Cl)cc2)n1` [drawing 460] the response rating (morningglory [6]) was 9C, the response rating (nutsedge) was 0 and the response rating (wild oats; 0.4 kg/ha) was 2C. The response rating (wheat [5]; 0.4 kg/ha) was 0.
For `COC(=O)c1ccccc1S(=O)(=O)NC(=O)Nc1nc(C)nc(OC)n1` [drawing 594], the “response rating after 4 weeks” value (purple nutsedge; .004 kg/ha) was 0, the “response rating after 4 weeks” value (purple nutsedge; .008 kg/ha) was 2G and the “response rating after 4 weeks” value (purple nutsedge; .016 kg/ha) was 2G.
